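96-well plates; 48 h exposure; 5 concentrations. Endpoints by linear interpolation between flanking doses. Not reached: highest tested concentration assigned. GI50 is the concentration that inhibits growth by half. TGI is the concentration that stops growth completely.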

The subject of one assay is HCC-2998 colon. Description: NCI tumour cell line growth inhibition, 48 h.
With `CCn1c(-c2nonc2N)nc2ccncc21`, the GI50 was > 25 µM and the TGI is > 25 µM.

On to `CC(C)[O-].CC(C)[O-].CN(CCN(C)Cc1cc(F)cc(F)c1[O-])Cc1cc(F)cc(F)c1[O-].[Ti+4]`, for which the GI50 is 2.22 µM and the TGI was 7.52 µM.

Consider `CSc1ccc(N(C)c2nc(C)nc3c2CCC3)cc1`, for which the GI50 is < 0.01 µM and the TGI amounted to 10.8 µM.

As for `O=C1/C(=C/c2ccc([N+](=O)[O-])cc2)COc2ccc(O)cc21`, the GI50 was 1.74 µM and the TGI came to 3.21 µM.

`COc1ccc(-c2cnoc2-c2cc(OC)c3c(c2)OCCO3)cc1`: the GI50 is 0.083 µM and the TGI came to 22 µM.

With `CC(=O)n1c(=O)c2cc3c(=O)n(-c4cccc(C#N)c4)c(=O)c3cc2c1=O`, the TGI is > 100 µM.

`COc1ccc(C2Oc3c(c(O)cc4c3[C@H](c3ccc(O)cc3O)[C@H](O)C(c3ccc(O)c(O)c3)O4)C[C@@H]2O)cc1O` (some centres not stated): the TGI was > 100 µM.

Turning to `CC(C)Oc1ccc(C(=O)Cn2ccnc2)cc1-n1c(CN2CCN(C(=O)COc3ccc(Cl)cc3)CC2)nc2ccccc2c1=O`, the GI50 was 15.7 µM and the TGI is 31 µM.

Consider `COc1cccc(COc2cc(-n3cnc4ccccc43)sc2C(N)=O)c1`, for which the GI50 is > 25 µM and the TGI was > 25 µM.

Consider `CCN(CC)c1ccc(/C=C/C2=[N+](C)c3ccccc3C2(C)C)c(C)c1`, for which the GI50 was 0.102 µM and the TGI stood at 5.27 µM.

Turning to `CCOC(OC1=C(C#N)CCCC1)C(CC)[Se]c1ccccc1` (configuration not stated), the TGI is > 100 µM.

In the case of `Fc1ccc2nc(-c3cc(-c4ccc5c(c4)OCO5)n[nH]3)[nH]c2c1`, the GI50 is 5.56 µM and the TGI was > 72.8 µM.

As to `COC(=O)c1ccc2c(c1)C(=O)c1c-2n(CCCN=[N+]=[N-])c(=O)c2cc([N+](=O)[O-])ccc12`, the GI50 was > 100 µM and the TGI is > 100 µM.

For the compound `C=C1C(=O)C23C(O)C1CC[C@H]2C12CCCC(C)(COC(C)=O)[C@H]1[C@H](O)[C@]3(O)OC2` (some centres not stated), the TGI was determined as 3.32 µM.

For the compound `CN(C)C(=S)Nc1nnc(Nc2ccccc2)s1`, the TGI was > 100 µM.

As for `COc1ccc(C2=C(N3CCc4ccccc43)C(=O)NC2=O)cc1`, the GI50 is > 25 µM and the TGI is > 25 µM.

In the case of `O=[N+]([O-])c1ccc(-c2cc3c(Nc4ccc(Cl)c(C(F)(F)F)c4)ncnc3s2)cc1`, the GI50 was 2.02 µM and the TGI is > 100 µM.

Another assay concerns IGROV1 ovarian. Description: NCI tumour cell line growth inhibition, 48 h.
Regarding `CCn1c(-c2nonc2N)nc2ccncc21`, the GI50 is > 25 µM and the TGI was > 25 µM.

In the case of `CC(C)[O-].CC(C)[O-].CN(CCN(C)Cc1cc(F)cc(F)c1[O-])Cc1cc(F)cc(F)c1[O-].[Ti+4]`, the GI50 was 0.688 µM and the TGI was determined as 2.47 µM.

Turning to `CSc1ccc(N(C)c2nc(C)nc3c2CCC3)cc1`, the GI50 is < 0.01 µM and the TGI is > 100 µM.

Turning to `O=C1/C(=C/c2ccc([N+](=O)[O-])cc2)COc2ccc(O)cc21`, the GI50 was 2 µM and the TGI turned out to be 4.99 µM.

On to `COc1ccc(-c2cnoc2-c2cc(OC)c3c(c2)OCCO3)cc1`, for which the GI50 was 0.0924 µM and the TGI was > 100 µM.

Turning to `CC(=O)n1c(=O)c2cc3c(=O)n(-c4cccc(C#N)c4)c(=O)c3cc2c1=O`, the TGI is > 100 µM.

`COc1ccc(C2Oc3c(c(O)cc4c3[C@H](c3ccc(O)cc3O)[C@H](O)C(c3ccc(O)c(O)c3)O4)C[C@@H]2O)cc1O` (some centres not stated): the TGI was > 100 µM.

As for `CC(C)Oc1ccc(C(=O)Cn2ccnc2)cc1-n1c(CN2CCN(C(=O)COc3ccc(Cl)cc3)CC2)nc2ccccc2c1=O`, the GI50 is 1 µM and the TGI was determined as 16.5 µM.

As for `COc1cccc(COc2cc(-n3cnc4ccccc43)sc2C(N)=O)c1`, the GI50 was > 23.8 µM and the TGI was > 25 µM.

`CCN(CC)c1ccc(/C=C/C2=[N+](C)c3ccccc3C2(C)C)c(C)c1`: the GI50 is 0.117 µM and the TGI worked out at 11.4 µM.

`CCOC(OC1=C(C#N)CCCC1)C(CC)[Se]c1ccccc1` (configuration not stated) registered a TGI of 74.1 µM.

In the case of `Fc1ccc2nc(-c3cc(-c4ccc5c(c4)OCO5)n[nH]3)[nH]c2c1`, the GI50 was 3.79 µM and the TGI was > 100 µM.

`COC(=O)c1ccc2c(c1)C(=O)c1c-2n(CCCN=[N+]=[N-])c(=O)c2cc([N+](=O)[O-])ccc12`: the GI50 is 21 µM and the TGI was > 100 µM.

Compound `C=C1C(=O)C23C(O)C1CC[C@H]2C12CCCC(C)(COC(C)=O)[C@H]1[C@H](O)[C@]3(O)OC2` (some centres not stated) came in with a TGI of 4.05 µM.

`CN(C)C(=S)Nc1nnc(Nc2ccccc2)s1`: the TGI is > 100 µM.

With `COc1ccc(C2=C(N3CCc4ccccc43)C(=O)NC2=O)cc1`, the GI50 was > 25 µM and the TGI is > 25 µM.

Take `O=[N+]([O-])c1ccc(-c2cc3c(Nc4ccc(Cl)c(C(F)(F)F)c4)ncnc3s2)cc1`: the GI50 was 1.62 µM and the TGI is > 100 µM.

For another assay, the system named is A498 renal. Description: NCI tumour cell line growth inhibition, 48 h.
In the case of `CCn1c(-c2nonc2N)nc2ccncc21`, the GI50 was > 25 µM and the TGI was > 25 µM.

`CC(C)[O-].CC(C)[O-].CN(CCN(C)Cc1cc(F)cc(F)c1[O-])Cc1cc(F)cc(F)c1[O-].[Ti+4]`: the GI50 is 1.13 µM and the TGI turned out to be 2.76 µM.

Regarding `CSc1ccc(N(C)c2nc(C)nc3c2CCC3)cc1`, the GI50 was < 0.01 µM and the TGI was < 0.01 µM.

On to `O=C1/C(=C/c2ccc([N+](=O)[O-])cc2)COc2ccc(O)cc21`, for which the GI50 was 4.52 µM and the TGI is > 100 µM.

In the case of `COc1ccc(-c2cnoc2-c2cc(OC)c3c(c2)OCCO3)cc1`, the GI50 was 0.0149 µM and the TGI is 0.164 µM.

`CC(=O)n1c(=O)c2cc3c(=O)n(-c4cccc(C#N)c4)c(=O)c3cc2c1=O`: the TGI is > 100 µM.

Consider `COc1ccc(C2Oc3c(c(O)cc4c3[C@H](c3ccc(O)cc3O)[C@H](O)C(c3ccc(O)c(O)c3)O4)C[C@@H]2O)cc1O` (some centres not stated), for which the TGI was > 100 µM.

On to `CC(C)Oc1ccc(C(=O)Cn2ccnc2)cc1-n1c(CN2CCN(C(=O)COc3ccc(Cl)cc3)CC2)nc2ccccc2c1=O`, for which the GI50 was 14.1 µM and the TGI was determined as 28.6 µM.
